From EP0271099A2, “Substituted aminopropionic acid amides, process for their preparation, agents containing them and their use as well as the intermediates formed during the preparation” (HOECHST AKTIENGESELLSCHAFT, priority 1986, dated 1988)
Where two headings read alike, the source gives them in different places.

Tested on: ECS-Amnesie
Test: Inhibitory (passive) avoidance test, reversal of amnesia induced by electroconvulsive shock
Format: in vivo, Mäusen
Conditions: Mus musculus
From the text: Die Verbindungen der Formel I besitzen wertvolle pharmakologische Eigenschaften, insbesondere nootrope. Die nootrope Wirkung der erfindungsgemäßen Verbindungen wurde an Mäusen, die ein Köpergewicht von 20-25 g besaßen, im inhibitory (passive) avoidance test geprüft. Eine modifizierte Form der von J. Kopp, Z. Bodanecky und M.E. Jarvik beschriebenen Testmethode wurde von J. Bures, O. Buresova und J. Huston im "Techniques and Basic Experiments for the Study of Brain and Behavior", Elsevier Scientific Publishers, Amsterdam 1983, beschrieben.
Entsprechend diesen Literaturangaben wird eine Substanz dann als nootrop wirksam bezeichnet, wenn sie bei den Versuchstieren die mittels eines elektroconvulsiven Schocks erzeugte Amnesie (ECS-Amnesie) aufzuheben vermag.
Die Versuche wurden nach modifizierten Testmethoden mit den erfindungsgemäßen Verbindungen durchgeführt. Als Vergleichsverbindung diente das bekannte Nootropikum 2-Oxo-1-pyrrolidinylessigsäureamid (Piracetam). Die deutliche Überlegenheit der erfindungsgemäßen Verbindungen über die Vergleichssubstanz zeigte sich darin, daß der amnestische Effekt bereits mit einer MED (minimal effective dosis) von 0,1-10 mg/kg p.o. aufzuheben ist. Die Vergleichssubstanz hat eine MED von ca. 500-1000 mg/kg p.o..

[1] = mice 20-25 g, oral, MED = minimal effective dosis reversing ECS-Amnesie, Table 1, read-out: Inhibitory avoidance MED mg/kg p.o. ECS-Amnesie
[2] = po, read-out: Inhibitory avoidance MED mg/kg p.o. ECS-Amnesie

SMILES	minimal effective dose [1]	minimal effective dose [2]	minimal effective dose (po, read-out: MED (minimal effective dosis))
O=C(O)CCc1ccc(NC(=O)CCN2CCN(c3cccc(Cl)c3)CC2)cc1 [Beispiel 34, 3-{4-(3-(4-(3-Chlorphenyl)-piperazino)-propionamido]-phenyl}-propionsäure]	1.6 mg/kg	–	–
O=C(O)C=Cc1ccc(NC(=O)CCN2CCN(c3cccc(Cl)c3)CC2)cc1 [Beispiel 35, 4-{3-[4-(3-Chlorphenyl)-piperazino]-propionamido}-zimtsäure]	50 mg/kg	–	–
O=C(O)CCCc1ccc(NC(=O)CCN2CCC(c3ccccc3)CC2)cc1 [Beispiel 45, 4-{4-[3-(4-Phenylpiperidino)-propionamido]-phenyl}-buttersäure]	25 mg/kg	–	–
O=C(O)CCc1ccc(NC(=O)CCN2CCN(c3ccccc3)CC2)cc1 [Beispiel 46, 3-{4-[3-(4-Phenylpiperazino)-propionamido]-phenyl}-propionsäure]	25 mg/kg	–	–
O=C(O)CCc1ccc(NC(=O)CCN2CCN(CCCc3ccccc3)CC2)cc1 [Beispiel 47, 3-{4-[3-(4-(3-Phenylpropyl)-piperazino)-propionamido]-phenyl}-propionsäure]	25 mg/kg	–	–
O=C(O)CCc1ccc(NC(=O)CCNCCCc2ccccc2)cc1 [Beispiel 48, 3-{4-[3-(3-Phenylpropylamino)-propionamido]-phenyl}-propionsäure]	50 mg/kg	–	–
O=C(O)CCc1ccc(NC(=O)CCN2CC=C(c3cccc(Cl)c3)CC2)cc1 [Beispiel 49, 3-{4-[3-(4-(3-Chlorphenyl)-1,2,5,6-tetrahydropyridino)-propionamido]-phenyl}-propionsäure]	–	25 mg/kg	–
NC(=O)CN1CCCC1=O [Piracetam, 2-Oxo-1-pyrrolidinylessigsäureamid, reference compound]	–	1000 mg/kg	500 to 1000 mg/kg
